Experimental data reported in publication PMC7449170, “ATI-2173, a Novel Liver-Targeted Non-Chain-Terminating Nucleotide for Hepatitis B Virus Cure Regimens” (Antimicrobial Agents and Chemotherapy, 2020).
pEC50: −log10 of the molar value. “Also recorded” adds a separate entry of the source.

How the values were obtained:
[1] = system: SkMC human skeletal muscle cells; assay: Cytotoxicity in skeletal muscle cells (CellTiter-Glo); settings: at 100 μM or greater, 72 h
Method: HK-2 human kidney cells were obtained from ATCC (Manassas, VA) and cultured in Gibco Keratinocyte serum-free medium (Thermo Fisher Scientific, Waltham, MA) supplemented with 10% FBS (Peak Serum, Wellington, CO). Human skeletal muscle cells were obtained from Lonza (Walkersville, MD) and cultured in SkGM-2 skeletal muscle cell growth medium-2 (Lonza). Both HK-2 and skeletal muscle cells were cultured humidified at 37°C and 5% CO2. Cryopreserved human primary hepatocytes and medium were received from Lonza. Cryopreserved iCell cardiomyocytes and cardiomyocyte medium were purchased from Stem Cell Technologies (Vancouver, BC, Canada). Cryopreserved human bone marrow mononuclear cells were purchased from Lonza with HemaTox Myeloid medium purchased from [sequence] […] All cryopreserved cells (human primary hepatocytes, iCell cardiomyocytes, and human bone marrow mononuclear cells) were stored in vapor phase liquid nitrogen until the day of plating. […] Serial dilutions of compounds in DMSO were as follows: 100, 10, 1, 0.1, 0.01, 0.001, 0.0001, and 0.00001 μM (final concentration of DMSO in medium was 0.5%). […]
(§1) Following incubation, cells were dosed and incubated for 72 h at 37°C and 5% CO2. Following incubation, the endpoint cell viability CellTiter-Glo 2.0 assay (Promega, San Luis Obispo, CA) was performed and luminescence data collected on a Synergy 4 plate reader (Biotek, Winooski, VT). […]

[2] = system: human bone marrow mononuclear cells; assay: Cytotoxicity in bone marrow mononuclear cells (CellTiter-Glo); settings: at 100 μM or greater, 72 h
Method: HK-2 human kidney cells were obtained from ATCC (Manassas, VA) and cultured in Gibco Keratinocyte serum-free medium (Thermo Fisher Scientific, Waltham, MA) supplemented with 10% FBS (Peak Serum, Wellington, CO). Human skeletal muscle cells were obtained from Lonza (Walkersville, MD) and cultured in SkGM-2 skeletal muscle cell growth medium-2 (Lonza). Both HK-2 and skeletal muscle cells were cultured humidified at 37°C and 5% CO2. Cryopreserved human primary hepatocytes and medium were received from Lonza. Cryopreserved iCell cardiomyocytes and cardiomyocyte medium were purchased from Stem Cell Technologies (Vancouver, BC, Canada). Cryopreserved human bone marrow mononuclear cells were purchased from Lonza with HemaTox Myeloid medium purchased from [sequence] […] All cryopreserved cells (human primary hepatocytes, iCell cardiomyocytes, and human bone marrow mononuclear cells) were stored in vapor phase liquid nitrogen until the day of plating. […] Serial dilutions of compounds in DMSO were as follows: 100, 10, 1, 0.1, 0.01, 0.001, 0.0001, and 0.00001 μM (final concentration of DMSO in medium was 0.5%).
HK-2 and skeletal muscle cells were seeded into 96-well plates at 5,000 cells/well and incubated overnight at 37°C and 5% CO2. Human hepatocytes were thawed, diluted in hepatocyte plating medium (Lonza) and seeded into a 96-well, collagen-coated plates at 2.5 × 10^4 cells/well. Hepatocytes were incubated for 6 h at 37°C in 5% CO2, then the medium was aspirated and replaced with hepatocyte culture medium at 50 μl/well, and finally incubated overnight. The iCell cardiomyocytes were thawed, suspended in iCell thawing/plating medium, and plated at 4 × 10^4 cells/well in a gelatin-coated 96-well plate. iCells were incubated for 2 days at 37°C in 7% CO2. […]
as §1

[3] = system: HBV genotypes A, B, C, D, E, F, G, and H; assay: microbe, parasite or virus in culture; type: cell-based; settings: Hepatitis B virus, HepG2, read-out: EC50 across HBV genotypes A to H
[4] = system: respiratory syncytial virus; assay: Antiviral panel: respiratory syncytial virus; type: cell-based; settings: up to 100 μM, data not shown
HBV coreP25A = assay: microbe, parasite or virus in culture; type: cell-based, Hepatitis B virus; settings: Hepatitis B virus, HepG2
HBV genotype D = assay: Anti-HBV activity in HepG2.2.15 cells (extracellular HBV DNA by qPCR); type: cell-based; settings: Hepatitis B virus, 192 h; HepG2.2.15 cells, qPCR, day 8; read-out: EC50, extracellular HBV DNA
Method: ATI-2173 was obtained from WuXi SynTheAll. Entecavir (positive control) was obtained from Shanghai Titan Scientific Co., Ltd. HepG2.2.15 cells (derived from human hepatoblastoma cell-like HepG2) contain four 5′ to 3′ tandem copies of the HBV genotype D and were provided by WuXi. HepG2.2.15 cells were cultured in Dulbecco’s modified Eagle medium (DMEM)/F12 (Invitrogen, 11330032) supplemented with 2% fetal bovine serum (FBS) (HyClone, SV30087.03), 1% L-glutamine, 1% minimum essential medium (MEM) nonessential amino acid solution (NEAA), and 1% penicillin-streptomycin solution. QIAamp 96 DNA blood kit was purchased from Qiagen (51162). […] Culture medium containing ATI-2173 or entecavir (serially diluted) was added to cells on day 2 and refreshed on day 5. ATI-2173 dilutions were: 0.0006, 0.0024, 0.0098, 0.0391, 0.1563, 0.6250, 2.5000, and 10.0000 μM. On day 8, cell culture supernatants were collected and DNA was extracted by the QIAamp 96 DNA blood kit. qPCR was run at 95°C for 10 min, then cycled at 95°C for 15 s, 60°C for 1 min, for a total of 40 cycles. HBV DNA content in the samples was calculated according to the standard curve and CT (cycle threshold of qPCR) values of a sample. Data were normalized for maximum and minimum copy numbers.

influenza virus = type: cell-based
[5] = system: human immunodeficiency virus 1; assay: Antiviral panel: human immunodeficiency virus 1; type: cell-based; settings: up to 100 μM, data not shown
HBV rtM204V = assay: microbe, parasite or virus in culture; type: cell-based; settings: Hepatitis B virus, HepG2
HBV rtA181V = assay: microbe, parasite or virus in culture; type: cell-based; settings: Hepatitis B virus, HepG2
[6] = system: HBV genotype B (JN406371); assay: microbe, parasite or virus in culture; type: cell-based; settings: Hepatitis B virus, HepG2
HBV rtS202G+M204I+M250V = assay: microbe, parasite or virus in culture; type: cell-based; settings: Hepatitis B virus, HepG2
[7] = Cell viability (CC50) in HepG2.2.15 cells; settings: human
[8] = system: HBV genotype F (HE974369); assay: microbe, parasite or virus in culture; type: cell-based; settings: Hepatitis B virus, HepG2
HBV = assay: Serum shift of anti-HBV EC50; type: cell-based, Hepatitis B virus; settings: data not shown
[9] = system: HBV genotype G (AB064315); assay: microbe, parasite or virus in culture; type: cell-based; settings: Hepatitis B virus, HepG2
HBV coreT33N = assay: microbe, parasite or virus in culture; type: cell-based, Hepatitis B virus; settings: Hepatitis B virus, HepG2
HBV wild type (U95551) = assay: Cross-resistance in transfected HepG2 cells, wild type; type: cell-based, Hepatitis B virus; settings: Hepatitis B virus
HBV rtS202G+M204I = assay: microbe, parasite or virus in culture; type: cell-based; settings: Hepatitis B virus, HepG2
[10] = system: HBV genotype A (HE974371); assay: microbe, parasite or virus in culture; type: cell-based; settings: Hepatitis B virus, HepG2
[11] = Food effect on plasma exposure in rats; type: in vivo; settings: single oral 50 mg/kg, data not shown
HBV rtL180M+M204V = assay: microbe, parasite or virus in culture; type: cell-based; settings: Hepatitis B virus, HepG2

## Cc1cn(C2OC(COP(=O)(NC(C)C(=O)OC(C)C)Oc3ccccc3)C(O)C2F)c(=O)[nH]c1=O (stereo not shown) [ATI-2173]
[1]
  Cytotoxicity: Minimal cytotoxicity; also recorded: very mild
[2]
  Cytotoxicity: Minimal cytotoxicity and mild
[3]
  pEC50: 6.14 to 6.67
[4]
  Antiviral efficacy: no detectable efficacy
HBV coreP25A
  pEC50: 6.27
HBV genotype D
  pEC50: 6.59
Influenza virus
  Antiviral efficacy: no detectable efficacy
[5]
  Antiviral efficacy: no detectable efficacy
HBV rtM204V
  pEC50: 6.79
HBV rtA181V
  pEC50: < 5.00
[6]
  pEC50: 6.67
HBV rtS202G+M204I+M250V
  pEC50: < 5.00
[7]
  CC50: > 10000 nM
[8]
  pEC50: 6.48
HBV
  Serum shift in EC50: no clear serum shift
[9]
  pEC50: 6.64
HBV coreT33N
  pEC50: 6.47
HBV wild type (U95551)
  pEC50: 6.22
HBV rtS202G+M204I
  pEC50: < 5.00
[10]
  pEC50: 6.38
[11]
  Difference in plasma exposure (Cmax or AUC0-last) to ATI-2173 or clevudine, fed versus fasted: no discernible differences
HBV rtL180M+M204V
  pEC50: < 5.00
